The text below walks through data of US20060264419A1 (priority 2003, published 2006).

For one assay, the target named is 5-HT2A receptors (Rattus norvegicus, UniProt P14842). The assay can be described thus: in-vitro affinity to 5-HT2A receptors, displacement of [3H]ketanserine (Example A1). In kind it is binding. The note with it: read-out: HT2A IC50. The text has this:
The 5-HT2A receptors are exposed both to [^3H]ketanserine (a substance which is known for its affinity to the receptor) and also to the test compound. The decrease in the affinity of [^3H]ketanserine to the receptor is an indication of the affinity of the test substance to the 5-HT2A receptor.
A general note: In a radioligand displacement assay an active substance lowers the binding of a labelled ligand.

A further assay has as its target T1, 5 HT2C receptor (Homo sapiens, UniProt P28335).
T1 sequence (P28335 33-458): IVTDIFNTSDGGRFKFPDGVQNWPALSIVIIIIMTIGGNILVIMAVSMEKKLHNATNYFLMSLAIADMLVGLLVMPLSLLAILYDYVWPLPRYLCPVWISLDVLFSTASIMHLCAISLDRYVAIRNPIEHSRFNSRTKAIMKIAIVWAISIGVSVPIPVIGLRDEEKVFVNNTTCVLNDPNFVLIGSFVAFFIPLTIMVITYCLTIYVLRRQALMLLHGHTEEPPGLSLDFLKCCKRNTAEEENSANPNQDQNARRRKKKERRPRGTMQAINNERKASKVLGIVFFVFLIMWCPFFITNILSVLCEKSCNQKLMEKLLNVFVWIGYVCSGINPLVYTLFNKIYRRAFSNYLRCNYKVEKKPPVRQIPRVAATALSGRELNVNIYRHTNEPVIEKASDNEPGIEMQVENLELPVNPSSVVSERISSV
The assay can be described thus: affinity to the 5 HT2C receptor. In kind it is binding.

The term IC50 denotes the concentration that inhibits the measured activity by half.

Chain of 5-HT2A receptors (P14842 whole entry): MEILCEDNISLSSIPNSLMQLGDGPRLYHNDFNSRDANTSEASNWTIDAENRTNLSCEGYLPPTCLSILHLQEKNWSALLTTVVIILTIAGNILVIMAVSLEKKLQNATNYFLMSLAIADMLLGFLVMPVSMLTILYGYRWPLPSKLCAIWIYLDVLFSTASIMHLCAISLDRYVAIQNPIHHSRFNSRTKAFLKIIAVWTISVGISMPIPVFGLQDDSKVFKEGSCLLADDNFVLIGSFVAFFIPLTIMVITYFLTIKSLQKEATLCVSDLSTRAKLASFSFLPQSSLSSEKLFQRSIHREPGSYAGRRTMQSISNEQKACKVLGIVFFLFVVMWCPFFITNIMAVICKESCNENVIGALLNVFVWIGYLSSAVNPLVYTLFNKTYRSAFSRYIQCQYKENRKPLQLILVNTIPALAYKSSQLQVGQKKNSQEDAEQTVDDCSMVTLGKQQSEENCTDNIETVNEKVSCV

Regarding `CN(C)CCN(C)Cc1cnn(-c2ccc(-c3ccccc3)cc2)c1-c1ccccc1F` [Example 912, N-[1-Biphenyl-4-yl-5-(2-fluorophenyl)-1H-pyrazol-4-ylmethyl]-N,N′,N′-trimethylethane-1,2-diamine], the IC50 on 5-HT2A receptors amounted to 20 nM; against 5 HT2C receptor it was 920 nM.

Turning to `OC1CCN(CCc2cnn(-c3ccc(-c4ccc(F)cc4)cc3)c2-c2ccccc2F)C1` (stereo not drawn) [Example 913, 1-{2-[1-(4′-Fluorobiphenyl-4-yl)-5-(2-fluoro-phenyl)-1H-pyrazol-4-yl]ethyl}pyrrolidin-3-ol], the values for the IC50 on 5-HT2A receptors and against 5 HT2C receptor were 20 nM and 620 nM, respectively.

With `CN(C)Cc1cnn(-c2ccc(-c3ccccc3)cc2)c1-c1ccccc1F` [Example 914, [1-Biphenyl-4-yl-5-(2-fluorophenyl)-1H-pyrazol-4-ylmethyl]dimethylamine], the half-inhibitory concentration (IC50) on 5-HT2A receptors is 21 nM; against 5 HT2C receptor it was 450 nM.

For `NCc1cnn(-c2ccc(-c3ccccc3)cc2)c1-c1ccccc1` [Example 915, C-(1-Biphenyl-4-yl-5-phenyl-1H-pyrazol-4-yl)-methylamine], the IC50 on 5-HT2A receptors was found to be 21 nM; against 5 HT2C receptor it was 920 nM.

Turning to `Cc1ccc(-c2ccc(-n3ncc(CN4CCN(C)CC4)c3-c3ccccc3F)cc2)cc1` [Example 916, 1-[5-(2-Fluorophenyl)-1-(4′-methylbiphenyl-4-yl)-1H-pyrazol-4-ylmethyl]-4-methylpiperazine], the 50% inhibitory concentration (IC50) on 5-HT2A receptors was found to be 22 nM; against 5 HT2C receptor, 960 nM.

In the case of `c1ccc(-c2ccc(-n3ncc(CNCc4ccccn4)c3-c3ccccc3)cc2)cc1` [Example 918, (1-Biphenyl-4-yl-5-phenyl-1H-pyrazol-4-yl-methyl)pyridin-2-ylmethylamine], the results for the half-maximal inhibitory concentration (IC50) at 5-HT2A receptors and against 5 HT2C receptor were 23 nM and 1000 nM, respectively.

For the compound `Fc1ccc(CCN2CCN(Cc3cnn(-c4ccccn4)c3-c3ccccc3F)CC2)c(F)c1` [Example 919, 1-[2-(2,4-Difluorophenyl)ethyl]-4-[5-(2-fluoro-phenyl)-1-pyridin-2-yl-1H-pyrazol-4-ylmethyl]-piperazine], the half-inhibitory concentration (IC50) on 5-HT2A receptors was 23 nM; at 5 HT2C receptor, 1000 nM.

`CN1CCN(Cc2cnn(-c3ccc(-c4ccc(Cl)cc4)cc3)c2-c2ccccc2F)CC1` [Example 920, 1-[1-(4′-Chlorobiphenyl-4-yl)-5-(2-fluoro-phenyl)-1H-pyrazol-4-ylmethyl]-4-methyl-piperazine]: the concentration for half-maximal inhibition (IC50) was found to be 23 nM at 5-HT2A receptors and 330 nM on 5 HT2C receptor.

Consider `CN1CCN(CCc2cnn(-c3ccc(-c4ccc(F)cc4)cc3)c2-c2ccccc2F)CC1` [Example 921, 1-{2-[1-(4′-Fluorobiphenyl-4-yl)-5-(2-fluoro-phenyl)-1H-pyrazol-4-yl]ethyl}-4-methylpiperazine], for which the IC50 at 5-HT2A receptors came to 23.3 nM; at 5 HT2C receptor it was 730 nM.

Consider `CN1CCN(Cc2cnn(-c3ccc(-c4ccccc4)cn3)c2-c2ccccc2F)CC1` [Example 922, 1-[5-(2-Fluorophenyl)-1-(5-phenyl-pyridin-2-yl)-1H-pyrazol-4-ylmethyl]-4-methylpiperazine], for which the IC50 at 5-HT2A receptors was determined as 24 nM; on 5 HT2C receptor it was 660 nM.

In the case of `CN1CCN(Cc2cnn(-c3ccc(-c4ccc(F)cc4)cc3)c2-c2ccc(F)cc2)CC1` [Example 923, 1-[1-(4′-Fluorobiphenyl-4-yl)-5-(4-fluoro-phenyl)-1H-pyrazol-4-ylmethyl]-4-methylpiperazine], the IC50 at 5-HT2A receptors was determined as 25 nM; against 5 HT2C receptor, 750 nM.

Consider `Fc1ccccc1-c1c(CN2CCNCC2)cnn1-c1ccc(-c2ccccc2)cc1` [Example 924, 1-[1-Biphenyl-4-yl-5-(2-fluorophenyl)-1H-pyrazol-4-ylmethyl]piperazine], for which the IC50 was determined as 26 nM on 5-HT2A receptors and 660 nM against 5 HT2C receptor.

On to `Cn1cccc1CNCc1cnn(-c2ccc(-c3ccccc3)cc2)c1-c1ccccc1` [Example 925, (1-Biphenyl-4-yl-5-phenyl-1H-pyrazol-4-yl-methyl)-(1-methyl-1H-pyrrol-2-ylmethyl)amine], for which the half-maximal inhibitory concentration (IC50) came to 26 nM on 5-HT2A receptors and 520 nM on 5 HT2C receptor.

For `CN1CCN(Cc2cnn(-c3ccc(-c4ccccc4)cc3)c2-c2ccccc2F)CC1` [Example 926, 1-[1-Biphenyl-4-yl-5-(2-fluoro-phenyl)-1H-pyrazol-4-ylmethyl]-4-methylpiperazine], the IC50 worked out at 27.3 nM on 5-HT2A receptors and 600 nM against 5 HT2C receptor.

Consider `CCN1CCN(Cc2cnn(-c3ccc(-c4ccccc4)cc3)c2-c2ccccc2F)CC1` [Example 927, 1-[1-Biphenyl-4-yl-5-(2-fluoro-phenyl)-1H-pyrazol-4-ylmethyl]-4-ethylpiperazine], for which the results for the IC50 at 5-HT2A receptors and at 5 HT2C receptor were 28 nM and 1000 nM, respectively.

Consider `CCN1CCN(CCc2cnn(-c3ccc(-c4ccc(F)cc4)cc3)c2-c2ccccc2F)CC1` [Example 928, 1-Ethyl-4-{2-[1-(4′-fluorobiphenyl-4-yl)-5-(2-fluorophenyl)-1H-pyrazol-4-yl]ethyl}piperazine], for which the figures for the IC50 on 5-HT2A receptors and at 5 HT2C receptor were 28 nM and 1300 nM, respectively.

Consider `CC(=O)NC1CCN(Cc2cnn(-c3ccc(-c4ccccc4)cc3)c2-c2ccccc2F)C1` (stereo not drawn) [Example 929, N-{1-[1-Biphenyl-4-yl-5-(2-fluoro-phenyl)-1H-pyrazol-4-ylmethyl]pyrrolidin-3-yl}acetamide], for which the IC50 was 29 nM at 5-HT2A receptors and 1000 nM on 5 HT2C receptor.

`COc1cccc(-c2ccc(-n3ncc(CN4CCN(C)CC4)c3-c3ccccc3F)cc2)c1` [Example 930, 1-[5-(2-Fluorophenyl)-1-(3′-methoxy-biphenyl-4-yl)-1H-pyrazol-4-ylmethyl]-4-methyl-piperazine]: the half-maximal inhibitory concentration (IC50) on 5-HT2A receptors worked out at 29 nM; at 5 HT2C receptor, 690 nM.

Regarding `Fc1ccccc1-c1c(CN2CCCCC2)cnn1-c1ccc(-c2ccccc2)cc1` [Example 931, 1-[1-Biphenyl-4-yl-5-(2-fluorophenyl)-1H-pyrazol-4-ylmethyl]piperidine], the IC50 at 5-HT2A receptors came to 30 nM; against 5 HT2C receptor, 1000 nM.

As to `c1ccc(-c2ccc(-n3ncc(CNCc4ccncc4)c3-c3ccccc3)cc2)cc1` [Example 932, (1-Biphenyl-4-yl-5-phenyl-1H-pyrazol-4-yl-methyl)pyridin-4-ylmethylamine], the IC50 is 31 nM on 5-HT2A receptors and 1000 nM on 5 HT2C receptor.

For `OCc1cnn(-c2ccc(-c3ccc(F)cc3)cc2)c1-c1ccc(Cl)cc1` [Example 933, [5-(4-Chlorophenyl)-1-(4′-fluoro-biphenyl-4-yl)-1H-pyrazol-4-yl]methanol], the IC50 came out at 31 nM on 5-HT2A receptors and 1000 nM against 5 HT2C receptor.

As for `Fc1ccccc1-c1c(CN2CCCC2)cnn1-c1ccc(-c2ccccc2)cc1` [Example 934, 1-Biphenyl-4-yl-5-(2-fluorophenyl)-4-pyrrolidin-1-ylmethyl-1H-pyrazole], the 50% inhibitory concentration (IC50) at 5-HT2A receptors stood at 32 nM; at 5 HT2C receptor, 1000 nM.

As for `COCCCNCc1cnn(-c2ccc(-c3ccccc3)cc2)c1-c1ccccc1F` [Example 935, [1-Biphenyl-4-yl-5-(2-fluorophenyl)-1H-pyrazol-4-ylmethyl]-(3-methoxypropyl)amine], the IC50 on 5-HT2A receptors turned out to be 34 nM; on 5 HT2C receptor it was 1000 nM.

For the compound `CN(C)Cc1cnn(-c2ccc(C(F)(F)F)cn2)c1-c1ccccc1F` [Example 937, [5-(2-Fluorophenyl)-1-(5-trifluoro-methylpyridin-2-yl)-1H-pyrazol-4-ylmethyl]dimethylamine], the 50% inhibitory concentration (IC50) turned out to be 35 nM on 5-HT2A receptors and 1000 nM against 5 HT2C receptor.

`CN1CCN(Cc2cnn(-c3ccc(C(F)(F)F)cn3)c2-c2ccccc2F)CC1` [Example 941, 1-[5-(2-Fluorophenyl)-1-(5-trifluoro-methylpyridin-2-yl)-1H-pyrazol-4-ylmethyl]-4-methyl-piperazine]: the 50% inhibitory concentration (IC50) at 5-HT2A receptors came to 39 nM; against 5 HT2C receptor it was 1000 nM.

As to `Cn1ccnc1CNCc1cnn(-c2ccc(-c3ccccc3)cc2)c1-c1ccccc1` [Example 942, (1-Biphenyl-4-yl-5-phenyl-1H-pyrazol-4-yl-methyl)-(1-methyl-1H-imidazol-2-ylmethyl)-amine], the IC50 on 5-HT2A receptors was found to be 39 nM; on 5 HT2C receptor, 1000 nM.

For the compound `CC(C)N1CCN(Cc2cnn(-c3ccc(-c4ccc(F)cc4)cc3)c2-c2cccc(Cl)c2)CC1` [Example 943, 1-[5-(3-Chlorophenyl)-1-(4′-fluorobiphenyl-4-yl)-1H-pyrazol-4-ylmethyl]-4-isopropylpiperazine], the half-inhibitory concentration (IC50) on 5-HT2A receptors was determined as 41 nM; on 5 HT2C receptor, 1000 nM.

As for `Fc1ccccc1-c1c(CN2CCNCC2)cnn1-c1ccc(C(F)(F)F)cc1` [Example 944, 1-[5-(2-Fluorophenyl)-1-(4-trifluoro-methyl-phenyl)-1H-pyrazol-4-ylmethyl]piperazine], the half-maximal inhibitory concentration (IC50) on 5-HT2A receptors is 43 nM; against 5 HT2C receptor, 790 nM.

Regarding `O=S1(=O)CCN(Cc2cnn(-c3ccc(-c4ccccc4)cc3)c2-c2ccccc2F)CC1` [Example 945, 4-[1-Biphenyl-4-yl-5-(2-fluorophenyl)-1H-pyrazol-4-ylmethyl]thiomorpholine 1,1-dioxide], the IC50 is 43 nM on 5-HT2A receptors and 1000 nM against 5 HT2C receptor.

As to `CN(C)CCN(C)Cc1cnn(-c2ccc(-c3ccc(F)cc3)cc2)c1-c1ccccc1Cl` [Example 946, N-[5-(2-chlorophenyl)-1-(4′-fluoro-biphenyl-4-yl)-1H-pyrazol-4-ylmethyl]-N,N′,N′-trimethyl-ethane-1,2-diamine], the IC50 is 44 nM at 5-HT2A receptors and 490 nM on 5 HT2C receptor.
